Assay results published in patent publication US20050227956A1, “Control of mold growth on wood” (priority 2004, published 2005).
Read-outs that look alike come from different tables or passages of the source. Marks after values point to notes of the source that are not given here.

How the values were obtained:
Test in all cases: Six-well plate screening test
Aureobasidium pullulans = format: cell-based
Penicillium funiculosum = format: cell-based
Stachybotrus charatrum = format: cell-based
Alternaria alternata = format: cell-based
Trichoderma virens = format: cell-based
[1] = system: Cladosporium cladosporioides; format: cell-based
Aspergillus niger = format: cell-based
Mold from ACQ wood = format: cell-based, cephalosporium; details: 10 days of incubation at room temperature
[2] = 10 days of incubation at room temperature
[3] = single moldicide or ACQ-C alone, incubation period 14 days
[4] = single moldicide, incubation period 21 days

| Compound | Minimum Inhibitory Concentrations (MIC) (Aureobasidium pullulans; [2]) [mg/kg] | Minimum Inhibitory Concentrations (MIC) (Penicillium funiculosum; [2]) [mg/kg] | Minimum Inhibitory Concentrations (MIC) (Stachybotrus charatrum; [2]) [mg/kg] | Minimum Inhibitory Concentrations (MIC) (Alternaria alternata; [2]) [mg/kg] | Minimum Inhibitory Concentrations (MIC) (Trichoderma virens; [2]) [mg/kg] | Minimum Inhibitory Concentrations (MIC) [1, 2] | Minimum Inhibitory Concentrations (MIC) (Aspergillus niger; [2]) [mg/kg] | further results |
| --- | --- | --- | --- | --- | --- | --- | --- | --- |
| CCNC(=O)NC(=O)C(C#N)=NOC [Cymoxinil, 1-(2-cyano-2-methoxyiminoacetyl)-3-ethylurea] | >100 | >100 | >100 | >100 | >100 | >100 mg/kg | 10 | MIC (Aureobasidium pullulans; [3]): >100 mg/kg; MIC (Penicillium funiculosum; [3]): >100 mg/kg; MIC (Alternaria alternata; [3]): >100 mg/kg; MIC (Trichoderma virens; [3]): >100 mg/kg; MIC [1, 3]: >100 mg/kg; MIC (Aspergillus niger; [3]): >100 mg/kg |
| O=[N+]([O-])c1cc(C(F)(F)F)c(Cl)c([N+](=O)[O-])c1Nc1ncc(C(F)(F)F)cc1Cl [Fluazinam, 3-chloro-N-(3-chloro-5-trifluoromethyl-2-pyridyl)-alpha,alpha,alpha-trifluoro-2,6-dinitro-p-toluidine] | 1 | 10 | – | 10 | >100 | 1 mg/kg | 1 | – |
| COC(=O)Nc1nc2ccccc2[nH]1 [Carbendazim, methyl benzimidazol-2-ylcarbamate] | 0.1 | 1 | – | >100 | 1 | 1^a mg/kg | 5 | – |
| CC1=C(C(=O)Nc2ccccc2)SCCO1 [Carboxin, 5,6-dihydro-2-methyl-1,4-oxathiine-3-carboxanilide] | 100 | >100 | 100 | >100 | – | 100 mg/kg | >100 | Minimum Inhibitory Concentrations (MIC) (Mold from ACQ wood): >100 mg/kg |
| CC(C)NC(=O)N1CC(=O)N(c2cc(Cl)cc(Cl)c2)C1=O [Iprodione, 3-(3,5-dichlorophenyl)-N-isopropyl-2,4-dioxoimidazolidine-1-carboxamide] | >100 | >102 | – | 100 | >100 | >101 mg/kg | 10 | – |
| CCCCNC(=O)n1c(NC(=O)OC)nc2ccccc21 [Benomyl, methyl 1-(butylcarbamoyl)benzimidazol-2-ylcarbamate] | 100 | 1 | – | >100 | 1 | 1^a mg/kg | 10 | – |
| N#Cc1c[nH]cc1-c1cccc(Cl)c1Cl [Fenpiclonil, 4-(2,3-dichlorophenyl)-1H-pyrrole-3-carbonitrile] | 50 | >100 | 10 | 50 | >100 | 10 mg/kg | 1 | – |
| CC1(c2ccc(Oc3ccccc3)cc2)OC(=O)N(Nc2ccccc2)C1=O (racemic) [FAMOXATE, (RS)-3-anilino-5-methyl-5-(4-phenoxyphenyl)-1,3-oxazolidine-2,4-dione] | >100 | >100 | >100 | >100 | >100 | >100 mg/kg | >100 | – |
| CC(Cc1ccc(C(C)(C)C)cc1)CN1C[C@@H](C)O[C@@H](C)C1 (mixture of isomers) [Fenpropimorph, (RS)-cis-4-[3-(4-tert-butylphenyl)-2-methylpropyl]-2,6-dimethylmorpholine] | 10 | >100 | 10 | 50 | 10 | 50 mg/kg | >100 | – |
| S=C([S-])NCCNC(=S)[S-].[Na+].[Na+] [Nabam, disodium ethylenebis(dithiocarbamate)] | 100 | >100 | 100 | >100 | 100 | 100 mg/kg | 100 | – |
| CC(C)(C)C(=O)C(Oc1ccc(Cl)cc1)n1cncn1 (racemic) [Tridimefon, (RS)-1-(4-chlorophenoxy)-3,3-dimethyl-1-(1H-1,2,4-triazol-1-yl)butan-2-one] | >100 | >100 | >100 | >100 | >100 | >100 mg/kg | >100 | – |
| N#CSCSc1nc2ccccc2s1 [TCMBT, 2-(thiocyanomethylthio)benzothiazole] | 300 | 30 | 3 | 300 | 3 | 30 mg/kg | – | MIC (Aureobasidium pullulans; [3]): 300 mg/kg; MIC (Penicillium funiculosum; [3]): 30 mg/kg; MIC (Alternaria alternata; [3]): 300 mg/kg; MIC (Trichoderma virens; [3]): 3 mg/kg; MIC [1, 3]: 30 mg/kg |
| CC(C)(C)C(O)C(Oc1ccc(Cl)cc1)n1cncn1 (stereo not drawn) [BAYTAN, (1RS,2RS; 1RS,2SR)-1-(4-chlorophenoxy)-3,3-dimethyl-1-(1H-1,2,4-triazol-1-yl)butan-2-ol] | 50 | >100 | >100 | >100 | >100 | 50 mg/kg | >100 | – |
| bis(8-hydroxyquinolinium) sulfate [8-hydroxyquinoline] | – | – | – | – | – | – | – | Minimum Inhibitory Concentrations (MIC) (Aureobasidium pullulans): 50 mg/kg; Minimum Inhibitory Concentrations (MIC) (Penicillium funiculosum): 25 mg/kg; Minimum Inhibitory Concentrations (MIC) (Stachybotrus charatrum): 10 mg/kg; Minimum Inhibitory Concentrations (MIC) (Alternaria alternata): 25 mg/kg; Minimum Inhibitory Concentrations (MIC) (Trichoderma virens): 25 mg/kg; Minimum Inhibitory Concentrations (MIC) [1]: 25 mg/kg; Minimum Inhibitory Concentrations (MIC) (Aspergillus niger): 100 mg/kg |
| CO/C=C(/C(=O)OC)c1ccccc1Oc1cc(Oc2ccccc2C#N)ncn1 [Azoxystrobin, methyl (E)-2-{2-[6-(2-cyanophenoxy)pyrimidin-4-yloxy]phenyl}-3-methoxyacrylate] | >100 | >100 | 25 | >100 | >100 | >100 mg/kg | >100 | – |
| Cc1cc(C2CC2)nc(Nc2ccccc2)n1 [Cyprodinil, 4-cyclopropyl-6-methyl-N-phenylpyrimidin-2-amine] | 100 | 100 | – | 10 | >100 | 100 mg/kg | 10 | MIC (Aureobasidium pullulans; [3]): 100 mg/kg; MIC (Aureobasidium pullulans; [4]): >100 mg/kg; MIC (Penicillium funiculosum; [3]): 100 mg/kg; MIC (Penicillium funiculosum; [4]): 100 mg/kg; Minimum Inhibitory Concentrations (MIC) (Mold from ACQ wood): >100 mg/kg; MIC (Stachybotrus charatrum; [3]): 100 mg/kg; MIC (Stachybotrus charatrum; [4]): 100 mg/kg; MIC (Alternaria alternata; [3]): 12.5 mg/kg; MIC (Alternaria alternata; [4]): 50 mg/kg; MIC (Trichoderma virens; [3]): 100 mg/kg; MIC (Trichoderma virens; [4]): >100 mg/kg; MIC [1, 3]: 100 mg/kg; MIC [1, 4]: >100 mg/kg; MIC (Aspergillus niger; [3]): 100 mg/kg; MIC (Aspergillus niger; [4]): >100 mg/kg |
